In ChEMBL document CHEMBL3232934, “Synthesis of thio-heterocyclic analogues from Baylis-Hillman bromides as potent cyclooxygenase-2 inhibitors” (Bioorg Med Chem Lett, 2014):

Columns and labels:
[1] = biological target: T1, Prostaglandin G/H synthase 2 (Homo sapiens) (UniProt P35354); conditions: at 100 µM
T1 sequence (whole entry): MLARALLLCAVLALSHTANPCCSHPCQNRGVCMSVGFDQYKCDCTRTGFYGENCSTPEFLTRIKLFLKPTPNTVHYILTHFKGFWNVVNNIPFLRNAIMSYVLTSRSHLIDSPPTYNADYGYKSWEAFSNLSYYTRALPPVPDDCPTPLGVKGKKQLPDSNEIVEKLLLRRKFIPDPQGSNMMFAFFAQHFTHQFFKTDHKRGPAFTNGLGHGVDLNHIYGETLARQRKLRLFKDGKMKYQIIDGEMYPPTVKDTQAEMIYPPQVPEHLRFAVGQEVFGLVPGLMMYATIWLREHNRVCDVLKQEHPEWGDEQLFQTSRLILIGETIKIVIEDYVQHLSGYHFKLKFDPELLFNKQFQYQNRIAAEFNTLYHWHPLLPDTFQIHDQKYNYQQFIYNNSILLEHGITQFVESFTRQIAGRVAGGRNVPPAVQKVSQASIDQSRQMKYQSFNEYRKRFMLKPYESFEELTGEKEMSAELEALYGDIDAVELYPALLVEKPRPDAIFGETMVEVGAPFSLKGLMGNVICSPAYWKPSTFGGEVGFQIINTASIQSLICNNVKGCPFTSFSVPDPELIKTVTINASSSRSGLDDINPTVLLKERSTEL
Description: Inhibition of COX2 (unknown origin) at 100 uM by colorimetric method

[2] = biological target: Prostaglandin G/H synthase 1 (Homo sapiens) (UniProt P23219); conditions: at 100 µM;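 note: COX-1 enzyme inhibition, read out colorimetrically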
Description: Inhibition of COX1 (unknown origin) at 100 uM by colorimetric method

[3] = biological target: T2, Prostaglandin G/H synthase 2 (Homo sapiens, UniProt P35354); assay: Inhibition of COX2 (unknown origin) by colorimetric method
T2 sequence (P35354 whole entry): T1 sequence (whole entry)

Prostaglandin G/H synthase 1 (Homo sapiens), sequence (P23219 whole entry): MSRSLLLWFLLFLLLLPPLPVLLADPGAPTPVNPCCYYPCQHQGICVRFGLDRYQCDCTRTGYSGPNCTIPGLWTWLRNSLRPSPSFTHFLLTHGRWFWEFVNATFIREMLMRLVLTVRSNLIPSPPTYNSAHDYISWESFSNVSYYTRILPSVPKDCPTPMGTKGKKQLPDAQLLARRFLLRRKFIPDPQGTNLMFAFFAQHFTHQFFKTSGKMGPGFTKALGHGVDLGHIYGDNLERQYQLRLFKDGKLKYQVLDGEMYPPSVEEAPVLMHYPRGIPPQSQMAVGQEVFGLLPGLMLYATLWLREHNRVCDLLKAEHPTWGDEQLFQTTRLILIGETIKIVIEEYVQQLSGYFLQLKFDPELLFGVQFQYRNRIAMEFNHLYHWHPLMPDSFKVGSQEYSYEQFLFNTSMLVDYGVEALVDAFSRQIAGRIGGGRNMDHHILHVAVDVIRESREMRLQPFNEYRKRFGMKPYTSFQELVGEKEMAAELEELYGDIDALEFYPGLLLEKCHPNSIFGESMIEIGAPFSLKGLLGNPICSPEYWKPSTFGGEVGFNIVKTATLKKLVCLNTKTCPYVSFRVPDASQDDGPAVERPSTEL

| SMILES | inhibition [1] [%] | inhibition [2] [%] | IC50 [3] [µM] |
| --- | --- | --- | --- |
| COC(=O)/C(=C/c1ccc2ccccc2c1)CSc1nc(C)cc(C)n1 | 73.5 | 46.3 | – |
| CCOC(=O)/C(=C/c1ccc(C(C)C)cc1)CSc1nc(C)cc(C)n1 | 77.4 | 44.1 | – |
| CCc1ccc(/C=C(\CSc2nncn2C)C(=O)OC)cc1 | 62.4 | 57.2 | – |
| COC(=O)/C(=C/c1ccc(OC)cc1)CSc1nc(C)cc(C)n1 | 80.2 | 65.3 | – |
| COC(=O)/C(=C/c1ccc2ccccc2c1)CSc1nc2ccccc2s1 | 75.1 | 28.8 | 2.93 |
| COC(=O)/C(=C/c1ccc(C(F)(F)F)cc1)CSc1nc2ccccc2o1 | 81.9 | 39 | 2.95 |
| COC(=O)/C(=C/c1ccc(Cl)cc1)CSc1nc(C)cc(C)n1 | 53.5 | 50.7 | – |
| COC(=O)/C(=C/c1ccc2ccccc2c1)CSc1nc2ccccc2o1 | 78.4 | 1 | 4.34 |
| CCOC(=O)/C(=C/c1cccc(Cl)c1)CSc1nc2ccccc2o1 | 76.7 | 50 | – |
| COC(=O)/C(=C/c1ccc(OC)cc1)CSc1nc2ccccc2o1 | 77.1 | 2 | 4.76 |
| CCOC(=O)/C(=C/c1ccc(C(C)C)cc1)CSc1nc2ccccc2o1 | 81 | 47 | – |
| COC(=O)/C(=C/c1ccc(Cl)cc1)CSc1nc2ccccc2o1 | 74.8 | 42.7 | – |
| COC(=O)/C(=C/c1ccc(F)cc1)CSc1nc2ccccc2o1 | 72 | 47.8 | – |

Other lines, results leading:

| inhibition [1] [%] | inhibition [2] [%] | IC50 [3] [µM] | SMILES |
| --- | --- | --- | --- |
| 64.7 | 54.3 | – | CCOC(=O)/C(=C/c1ccc(Br)cc1)CSc1nc2ccccc2o1 |
| 78.6 | 24.4 | 5.88 | CCOC(=O)/C(=C/c1cccc(Cl)c1)CSc1nc(C)cc(C)n1 |
| 77.5 | 51.4 | – | COC(=O)/C(=C/c1ccc(C(F)(F)F)cc1)CSc1nc2ccccc2s1 |
| 78.6 | 20.8 | 3.88 | CCOC(=O)/C(=C/c1cccc(F)c1)CSc1nncn1C |
| 71 | 50.7 | – | COC(=O)/C(=C/c1ccc(F)cc1)CSc1nc(C)cc(C)n1 |
| 78.5 | 38.3 | 3.17 | CCOC(=O)/C(=C/c1ccc(Br)cc1)CSc1nc(C)cc(C)n1 |
| 76.5 | 55.1 | – | CCOC(=O)/C(=C/c1ccc(CC)cc1)CSc1nc(C)cc(C)n1 |
